Measurements taken from patent US11213512B2, “Bis-amino acid based compound and use thereof” (THE CURATORS OF THE UNIVERSITY OF MISSOURI, priority 2016, dated 2022).

Legend:
HEK-293 cells = test: Mammalian cell permeability and vitality, confocal microscopy (propidium iodide / fluorescein diacetate); format: cell-based, human; conditions: 2 hours
Method: To test the permeability of HEK-293 cells, the cells were cultured in growth medium as described above. HEK-293 (90% confluent) were then seeded in a 96-well plate to get 30,000 cells/well. After 24 hours of incubation at 37° C. and 5% CO2, the spent media was replaced with media (DMEM and 10% FBS) containing compound 2 at either 20 μM or 80 μM. […] Triton X-100 at 0.1%—by volume (1670 μM) and DMSO 0.5% (v/v) were also used as controls. After 2 hours of incubation, spent media was replaced with PBS containing propidium iodide (30 μM) and fluorescein diacetate (60 μM) and incubated at 37° C. and 5% CO2. After 2 hour of incubation, the spend media was replaced with fresh PBS and the cells were observed under Zeiss LSM 700 confocal microscope. The images were reported without any alterations. The gain and the intensity in all the images were kept constant.
A compound that inhibits bacterial growth and penetrates into the microbe's cytosol may also penetrate into mammalian cells. A similar microscopic study was conducted with the human embryonic kidney (HEK-293) cell line. In this case, only compound 2 was studied. […] The microscopic study was therefore conducted at 20 μM, a value well below any inhibitory concentration, and at 80 μM, a concentration above all three MIC values. The 80 μM concentration was used to confirm the […] of 2 and to establish the lack of serum inhibition.

[1] = test system: Staphylcoccus aureus 1199B; test: Checkerboard combination with norfloxacin or ethidium bromide; format: cell-based, Staphylococcus aureus; conditions: compound at ½ MIC or 2 μM; additive not stated
Method: Two different strains of E. coli (Gram-negative) were used. The laboratory strain of E. coli, K-12 (ATCC Accession No. 700926), was used for preliminary MIC determinations. The tetracycline resistant strain of E. coli (Tet^R) was prepared by transforming competent JM109 E. coli (Promega) with the pBR322 plasmid (Carolina Biologicals) using the manufacturers protocol. This plasmid contains two resistance genes: the tetA gene expresses the tetracycline resistance TetA efflux pump (Sapunaric and Levy, Microbiol. 2005, 151, 2315-2322) and the amp^R gene expresses a β-lactamase enzyme (Bolivar, et al; Gene 1977, 2, 95-113) that cleaves the four membered ring of penicillin derivatives. The resulting E. coli, which we designate Tet^R E. coli, is both tetracycline and ampicillin resistant. The TetA efflux pump belongs to the major facilitator superfamily (MFS), spans the cytoplasmic membrane, and transports tetracycline from the cell cytoplasm to the periplasmic space (Thanassi, et al., J. Bacteriol. 1995, 177, 998-1007). This active efflux utilizes the proton gradient as an energy source (Levy, Antimicrob. Agents Chemother. 1992, 36, 695-703). […]
Similar experiments to those described in Example 7 above were conducted, wherein the antimicrobial activity of various compounds was determined against Staphylcoccus aureus 1199B. […]

[2] = Aggregate detection by dynamic light scattering; format: physicochemical; conditions: 10.(HCl)2 at concentrations between 10 μM and 1 mM
Excerpt: Amphiphiles are known to enhance the permeability of bacterial boundary layers (Lambert and Hammond, Biochem. Biophys. Res. Commun. 1973, 54, 796-799; and Hancock, Lancet 1997, 349, 418-422). Amphiphiles are also known to form aggregates in aqueous solution. An effort to detect aggregates of 10 was made by using dynamic light scattering (DLS). Compound 10 was deemed to be the most amphiphilic (bola-amphiphilic) of the structures owing to the estimated maximal spacing of the amino groups (Fuhrhop, et al., J. Am. Chem. Soc. 1993, 115, 1600-1601). Solutions of 10.(HCl)2 at concentrations between 10 μM and 1 mM were prepared and examined by dynamic light scattering methods. At the highest concentration, it appeared that some aggregates formed, but the counts were low and the results were considered inconclusive.

In the case of Cl.Cl.N[C@@H](Cc1c[nH]c2ccccc12)C(=O)Nc1cccc(NC(=O)[C@@H](N)Cc2c[nH]c3ccccc23)c1 [Compound 2, (2S,2′S)-1,1′-(1,3-Phenylenebis(azanediyl))bis(3-(1H-indol-3-yl)-1-oxopropan-2-aminium) chloride], the “cellular vitality (FDA fluorescence)” value (HEK-293 cells; 20 μM) is reported as “no loss of vitality” and the “cellular vitality (FDA fluorescence)” value (HEK-293 cells; 80 μM) is reported as “some toxic effect was apparent”.
For Cl.Cl.N[C@H](Cc1c[nH]c2ccccc12)C(=O)NCCCCCCCCCCCCNC(=O)[C@@H](N)Cc1c[nH]c2ccccc12 [Compound 10, (S)-1-((12-((R)-2-Ammonio-3-(1H-indol-3-yl)propanamido)dodecyl)amino)-3-(1H-indol-3-yl)-1-oxopropan-2-aminium chloride], the “activity recovered (fold)” value [1] was 128 fold and the “aggregate formation in aqueous solution (DLS)” value [2] was “inconclusive”.
